Measurements: patent publication US8822688B2, “Imidazo[1,2-a]pyridine derivative” (Astellas Pharma Inc., priority 2010, dated 2014)
Where a name gives a salt, the structure may show the parent alone.

Target: T1, human PDE4B2 (Homo sapiens, UniProt Q07343)
T1 construct: FLAG; made in house; host or cells: COS-1 cells (plasmid amplified in E. coli)
Assay: Human PDE4B activity inhibition test (SPA, [3H]-cAMP)
Type: biochemical
Details: FLAG-tagged human PDE4B2 purified from COS-1 cells; 30 min at room temperature; read-out: IC50 (nM), human PDE4B inhibitory activity
Description: Test Method 1: Human PDE4B Inhibitory Activity
(1) Purification of Human PDE4B Enzyme
Plasmid DNA encoding FLAG-tagged human PDE4B2 was prepared and transfected into E. coli, and mass cultivation was performed. After extracting and purifying the plasmid DNA from the E. coli, the resultant was transfected into COS-1 cells and cultured. After the cells were homogenized, the expressed enzyme was purified using a FLAG peptide affinity column.
(2) Human PDE4B Activity Inhibition Test
1 μl/well of DMSO solution in which various concentrations of test compounds were dissolved and 74 μl/well of the purified enzyme diluted with a buffer were added to 96-well plates, and incubated at room temperature for 10 minutes. A buffer including 40 nM [^3H]-cAMP (Amersham, TRK559) and 4 μM cAMP were added at 25 μl/well and reacted for 30 minutes at room temperature. A suspension (18 mM ZnSO4, 5 mM IBMX, distilled water) of polylysin coated yttrium silicate SPA beads (Amersham, RPNQ0010) was added at 50 μl/well, and the reaction was stopped. After standing for 20 minutes at room temperature, the radioactivity was measured using a top count instrument and set as an index of enzyme activity. For evaluating the enzyme inhibitory activity of the test compound in each experiment, a value of IC50 was calculated with the radiation activity of the well of adding the vehicle (DMSO) and the enzyme as 0% inhibition and the radiation activity of the well of adding only the vehicle and not adding the enzyme as 100% inhibition.

T1 sequence (Q07343 1-564 isoform Q07343-2): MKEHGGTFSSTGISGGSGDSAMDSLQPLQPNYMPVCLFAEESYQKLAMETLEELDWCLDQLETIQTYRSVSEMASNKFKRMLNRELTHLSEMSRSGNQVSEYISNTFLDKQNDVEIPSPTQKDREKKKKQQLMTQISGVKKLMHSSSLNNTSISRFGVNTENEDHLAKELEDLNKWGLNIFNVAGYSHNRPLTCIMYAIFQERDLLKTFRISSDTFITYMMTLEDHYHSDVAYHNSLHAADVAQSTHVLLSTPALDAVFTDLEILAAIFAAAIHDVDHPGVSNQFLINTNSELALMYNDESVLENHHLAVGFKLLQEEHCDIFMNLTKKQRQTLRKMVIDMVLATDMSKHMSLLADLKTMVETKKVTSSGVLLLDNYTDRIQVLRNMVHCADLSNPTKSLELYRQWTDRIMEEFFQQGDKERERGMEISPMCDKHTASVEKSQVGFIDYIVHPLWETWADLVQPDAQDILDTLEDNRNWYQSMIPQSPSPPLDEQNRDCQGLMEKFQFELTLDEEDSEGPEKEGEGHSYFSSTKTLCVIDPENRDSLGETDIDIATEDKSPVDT

| Compound | IC50 [nM] |
| --- | --- |
| CO[C@]1(CO)CCN(c2c3c(c(C(N)=O)c4nc5ccccc5n24)CCC3)C[C@H]1F (relative stereo) [Example 10] | 48 |
| CO[C@@]1(CO)CCN(c2c3c(c(C(N)=O)c4nc5ccccc5n24)CC(C)(C)C3)C[C@@H]1F (relative stereo) [Example 22, rel-11-[(3R,4S)-3-fluoro-4-(hydroxymethyl)-4-methoxypiperidin-1-yl]-2,2-dimethyl-2,3-dihydro-1H-cyclopenta[4,5]pyrido[1,2-a]benzimidazole-4-carboxamide] | 11.8 |
| CC1(CO)CCN(c2c3c(c(C(N)=O)c4nc5ccccc5n24)CCC3)CC1 [Example 2] | 13 |
| CC1(C)CCc2c(c(N3CCC(C)(CO)CC3)n3c(nc4ccccc43)c2C(N)=O)C1 [Example 4] | 86 |
| N#CC1(CO)CCN(c2c3c(c(C(N)=O)c4nc5ccccc5n24)CCC3)CC1 [Example 5] | 14 |
| COC1(CO)CCN(c2c3c(c(C(N)=O)c4nc5ccccc5n24)CCC3)CC1 [Example 8] | 8 |
| COC1(CO)CCN(c2c3c(c(C(N)=O)c4nc5ccccc5n24)CC(C)(C)C3)CC1 [Example 12] | 2.7 |
| COC1(CO)CCN(c2c3c(c(C(N)=O)c4nc5ccccc5n24)C2CCC3C2)CC1 (centres unmarked) [Example 14] | 3.3 |
| COC1(CO)CCN(c2c3c(c(C(N)=O)c4nc5c(n24)CCCC5)CCC3)CC1 [Example 15] | 26 |
| COC1(CO)CCN(c2c3c(c(C(N)=O)c4nc5ccccc5n24)CCSC3)CC1 [Example 16] | 15 |
| CC1(CN)CCN(c2c3c(c(C(N)=O)c4nc5ccccc5n24)CCC3)CC1 [Example 18, 11-[4-(aminomethyl)-4-methylpiperidin-1-yl]-2,3-dihydro-1H-cyclopenta[4,5]pyrido[1,2-a]benzimidazole-4-carboxamide dihydrochloride] | 18 |
| NC(=O)c1c2c(c(N3CCC4(CO)CC4C3)n3c1nc1ccccc13)CCC2 (centres unmarked) [Example 23, 11-[6-(hydroxymethyl)-3-azabicyclo[4.1.0]hept-3-yl]-2,3-dihydro-1H-cyclopenta[4,5]pyrido[1,2-a]benzimidazole-4-carboxamide hydrochloride] | 42 |
| NC(=O)c1c2c(c(N3CCC4(CC3)CNC4)n3c1nc1ccccc13)CCC2 [Example 25, 11-(2,7-diazaspiro[3.5]non-7-yl)-2,3-dihydro-1H-cyclopenta[4,5]pyrido[1,2-a]benzimidazole-4-carboxamide dihydrochloride] | 8.2 |
| NC(=O)c1c2c(c(N3CCC4(CCNC4)CC3)n3c1nc1ccccc13)CCC2 [Example 26] | 13 |
